Experiments:
[1] = molecular target: T1, Human melanocortin (MC5) (Homo sapiens, UniProt P33032); test: Radioligand binding, human melanocortin MC5 membranes, FlashPlate, [125I]-NDP-αMSH; settings: compound at 10 μM, [125I]-NDP-αMSH
T1 construct: purchased Perkin Elmer Biosignal
Protocol: (§1) Cloned receptor membrane preparations from Perkin Elmer Biosignal™ were used in radioligand binding assays.
(§2) A1 Human δ-opioid (DOP), A2 Human κ-Opioid (KOP), A3 Human Melanocortin (MC3), A4 Human Melanocortin (MC4), A5 Human melanocortin (MC5), A6 Human melanin-concentrating hormone (MCH1), A7 Human μ-opioid (MOP), A8 Human neurokinin (NK1), A9 Human neuropeptide Y (NPY-Y1), A10 Human opioid (ORL1) A11 Mouse urotensin (mUR2)
(§3) Screening experiments were performed in either a 50 μl filtration or 25 μl FlashPlate assay format using the following protocol:
(§4) 19.5 μl buffer, 0.5 μl of compound diluted in DMSO, 5 μl of radioligand diluted in binding buffer.
(§5) The day prior to performing the experiment 50 μl DMSO was added to each well of the compound plates to yield compounds at a final concentration of 10 mM. Daughter plates were then created by diluting the compounds further in DMSO to a concentration of 0.5 mM. The mother plates were frozen immediately.
(§6) Immobilize membranes into FlashPlate microplates using PerkinElmer BioSignal's proprietary coating procedure. Dilute radioligand to 5× the final concentration in binding buffer. Add 19.5 μl buffer to each well of the FlashPlate. Add 0.5 μl of DMSO (total value, 5 wells), reference ligand (non-specific value, 3 wells) or compound to the corresponding wells in the FlashPlate microplate. Initiate the reaction by adding 5 μl of radioligand to each well. Apply TopSeal-A onto FlashPlate microplates. Incubate at room temperature for 1 hour in the dark. Count for 30 seconds per well on TopCount Microplate Scintillation and Luminescence Counter (PerkinElmer) using a count delay of 60 seconds.
(§7) Percentage inhibition was calculated using the following formula: [formula]

[2] = molecular target: T2, Human κ-Opioid (KOP) (Homo sapiens, UniProt P41145); test: Radioligand binding, human κ-opioid (KOP) membranes, filtration, [3H]-Diprenorphine; settings: compound at 10 μM, [3H]-Diprenorphine
T2 construct: purchased Perkin Elmer Biosignal
Protocol: as §1, §2, §3
(§8) 44 μl membranes diluted in buffer, 1 μl of compound diluted in DMSO, 5 μl of radioligand diluted in binding buffer.
as §5
(§9) Thaw membranes on ice then dilute membranes in binding buffer at a concentration of 1 Unit per well. Dilute radio-ligand to 10 times the final concentration in binding buffer. Add 44 μl of diluted membranes to each well of the deep-well plate. Add 1 μl of DMSO (total value, 5 wells), reference ligand (non-specific value, 3 wells) or compound to the corresponding wells in the deep-well plate. Initiate the reaction by adding 5 μl of radioligand to each well and vortex gently. Incubate at room temperature for 1 hour. During incubation, pre-incubate the Multiscreen Harvest plates in 0.3% PEI. Filter over pre-soaked Multiscreen Harvest plates using a Tomtec Harvester. Wash 9 times with 500 μl of cold 50 mM Tris-HCl pH 7.4 at 4° C. and air-dry for 30 minutes at room temperature under a fume hood. Apply a bottom seal to the Multiscreen Harvest plates. Add 25 μl of MicroScint-0 to each well. Apply TopSeal-A to the plate. Count for 30 seconds per well on TopCount Microplate Scintillation and Luminescence Counter (PerkinElmer) using a count delay of 60 seconds.
as §7

[3] = molecular target: T3, Human Melanocortin (MC3) (Homo sapiens, UniProt P41968); test: Radioligand binding, human melanocortin MC3 membranes, FlashPlate, [125I]-NDP-αMSH; settings: compound at 10 μM, [125I]-NDP-αMSH
T3 construct: purchased Perkin Elmer Biosignal
Protocol: as §1, §2, §3, §4, §5, §6, §7

[4] = molecular target: T4, Human δ-opioid (DOP) (Homo sapiens, UniProt P41143); test: Radioligand binding, human δ-opioid (DOP) membranes, FlashPlate, [3H]-Bremazocine; settings: compound at 10 μM, [3H]-Bremazocine
T4 construct: purchased Perkin Elmer Biosignal
Protocol: as §1, §2, §3, §4, §5, §6, §7

[5] = molecular target: T5, Human opioid (ORL1) (Homo sapiens, UniProt P41146); test: Radioligand binding, human opioid ORL1 membranes, FlashPlate, [125I]-Nociceptin; settings: compound at 10 μM, [125I]-Nociceptin
T5 construct: purchased Perkin Elmer Biosignal
Protocol: as §1, §2, §3, §4, §5, §6, §7

[6] = molecular target: T6, Human neuropeptide Y (NPY-Y1) (Homo sapiens, UniProt P25929); test: Radioligand binding, human neuropeptide Y NPY-Y1 membranes, FlashPlate, [125I]-PYY; settings: compound at 10 μM, [125I]-PYY
T6 construct: purchased Perkin Elmer Biosignal
T6 sequence (P25929 1-384): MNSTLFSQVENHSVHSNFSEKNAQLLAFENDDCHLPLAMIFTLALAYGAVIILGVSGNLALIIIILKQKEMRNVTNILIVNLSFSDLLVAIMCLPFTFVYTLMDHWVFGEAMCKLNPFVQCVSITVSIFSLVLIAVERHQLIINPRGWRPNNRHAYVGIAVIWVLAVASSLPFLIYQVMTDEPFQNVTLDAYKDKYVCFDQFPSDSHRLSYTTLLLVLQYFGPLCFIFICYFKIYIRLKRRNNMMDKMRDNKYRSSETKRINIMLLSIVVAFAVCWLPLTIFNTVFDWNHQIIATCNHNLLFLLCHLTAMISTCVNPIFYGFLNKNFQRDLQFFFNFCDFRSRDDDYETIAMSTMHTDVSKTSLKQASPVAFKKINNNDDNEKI
Protocol: as §1, §2, §3, §4, §5, §6, §7

[7] = molecular target: T7, Human melanin-concentrating hormone (MCH1) (Homo sapiens, UniProt Q99705); test: Radioligand binding, human melanin-concentrating hormone MCH1 membranes, FlashPlate, [125I]-S36057; settings: compound at 10 μM
T7 construct: purchased Perkin Elmer Biosignal
Protocol: as §1, §2, §3, §4, §5, §6, §7

[8] = molecular target: T8, Mouse urotensin (mUR2) (Mus musculus, UniProt Q8VIH9); test: Radioligand binding, mouse urotensin mUR2 membranes, FlashPlate, [125I]-Urotensin II; settings: compound at 10 μM, [125I]-Urotensin II
T8 construct: purchased Perkin Elmer Biosignal
T8 sequence (Q8VIH9 1-385): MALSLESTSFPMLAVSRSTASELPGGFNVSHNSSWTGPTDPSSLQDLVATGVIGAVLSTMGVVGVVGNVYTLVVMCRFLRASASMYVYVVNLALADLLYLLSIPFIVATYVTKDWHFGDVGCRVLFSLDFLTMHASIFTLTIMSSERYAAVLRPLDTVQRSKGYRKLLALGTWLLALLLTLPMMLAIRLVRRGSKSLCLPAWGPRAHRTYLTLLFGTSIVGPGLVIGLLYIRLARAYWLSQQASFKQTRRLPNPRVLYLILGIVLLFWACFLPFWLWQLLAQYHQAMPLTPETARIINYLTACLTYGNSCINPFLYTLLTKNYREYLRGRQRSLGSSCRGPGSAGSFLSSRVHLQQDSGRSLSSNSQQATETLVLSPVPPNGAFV
Protocol: as §1, §2, §3, §4, §5, §6, §7

[9] = molecular target: T9, Human Melanocortin (MC4) (Homo sapiens, UniProt P32245); test: Radioligand binding, human melanocortin MC4 membranes, FlashPlate, [125I]-NDP-αMSH; settings: compound at 10 μM, [125I]-NDP-αMSH
T9 construct: purchased Perkin Elmer Biosignal
Protocol: as §1, §2, §3, §4, §5, §6, §7

[10] = molecular target: T10, Human neurokinin (NK1) (Homo sapiens, UniProt P25103); test: Radioligand binding, human neurokinin NK1 membranes, filtration, [125I]-Substance P; settings: compound at 10 μM, [125I]-Substance P
T10 construct: purchased Perkin Elmer Biosignal
Protocol: as §1, §2, §3, §8, §5, §9, §7

[11] = molecular target: T11, Human μ-opioid (MOP) (Homo sapiens, UniProt P35372); test: Radioligand binding, human μ-opioid (MOP) membranes, FlashPlate, [3H]-Naloxone; settings: compound at 10 μM, [3H]-Naloxone
T11 construct: purchased Perkin Elmer Biosignal
Protocol: as §1, §2, §3, §4, §5, §6, §7

T7 sequence (Q99705 whole entry): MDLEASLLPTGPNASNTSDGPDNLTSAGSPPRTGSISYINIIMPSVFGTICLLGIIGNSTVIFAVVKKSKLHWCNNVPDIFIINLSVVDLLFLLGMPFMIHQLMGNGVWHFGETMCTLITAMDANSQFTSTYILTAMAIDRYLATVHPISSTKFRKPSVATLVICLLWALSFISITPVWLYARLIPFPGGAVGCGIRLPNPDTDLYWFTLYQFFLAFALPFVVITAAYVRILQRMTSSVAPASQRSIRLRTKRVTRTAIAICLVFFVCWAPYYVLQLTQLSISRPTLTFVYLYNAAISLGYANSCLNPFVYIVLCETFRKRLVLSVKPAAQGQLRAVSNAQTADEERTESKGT
T5 sequence (P41146 whole entry): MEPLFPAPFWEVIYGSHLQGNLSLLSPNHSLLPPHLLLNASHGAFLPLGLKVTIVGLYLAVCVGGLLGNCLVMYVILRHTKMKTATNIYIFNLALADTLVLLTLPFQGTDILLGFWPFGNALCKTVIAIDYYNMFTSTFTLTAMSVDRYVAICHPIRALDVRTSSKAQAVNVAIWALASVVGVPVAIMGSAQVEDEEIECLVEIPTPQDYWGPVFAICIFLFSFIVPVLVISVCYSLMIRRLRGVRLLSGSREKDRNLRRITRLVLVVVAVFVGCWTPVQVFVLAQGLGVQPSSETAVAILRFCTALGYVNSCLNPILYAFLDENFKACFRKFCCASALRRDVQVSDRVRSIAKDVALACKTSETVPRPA
T4 sequence (P41143 whole entry): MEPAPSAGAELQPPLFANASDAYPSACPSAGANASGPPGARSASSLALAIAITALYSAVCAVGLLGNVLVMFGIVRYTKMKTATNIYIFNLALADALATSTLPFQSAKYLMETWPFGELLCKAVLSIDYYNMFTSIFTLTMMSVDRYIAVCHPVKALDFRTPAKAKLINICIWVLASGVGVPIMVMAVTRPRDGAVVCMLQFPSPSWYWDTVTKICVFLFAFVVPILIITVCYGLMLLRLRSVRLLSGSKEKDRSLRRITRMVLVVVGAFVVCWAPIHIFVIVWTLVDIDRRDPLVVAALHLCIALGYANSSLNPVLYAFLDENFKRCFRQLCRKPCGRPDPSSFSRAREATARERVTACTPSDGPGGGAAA
T9 sequence (P32245 whole entry): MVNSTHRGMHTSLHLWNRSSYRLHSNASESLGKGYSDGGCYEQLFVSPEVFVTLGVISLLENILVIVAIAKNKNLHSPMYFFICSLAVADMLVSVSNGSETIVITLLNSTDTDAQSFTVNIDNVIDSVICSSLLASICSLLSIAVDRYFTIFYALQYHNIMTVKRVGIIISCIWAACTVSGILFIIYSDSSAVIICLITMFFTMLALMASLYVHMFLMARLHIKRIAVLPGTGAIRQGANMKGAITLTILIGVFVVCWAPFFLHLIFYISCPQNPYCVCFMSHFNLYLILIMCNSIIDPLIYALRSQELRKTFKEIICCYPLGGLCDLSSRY
T1 sequence (P33032 whole entry): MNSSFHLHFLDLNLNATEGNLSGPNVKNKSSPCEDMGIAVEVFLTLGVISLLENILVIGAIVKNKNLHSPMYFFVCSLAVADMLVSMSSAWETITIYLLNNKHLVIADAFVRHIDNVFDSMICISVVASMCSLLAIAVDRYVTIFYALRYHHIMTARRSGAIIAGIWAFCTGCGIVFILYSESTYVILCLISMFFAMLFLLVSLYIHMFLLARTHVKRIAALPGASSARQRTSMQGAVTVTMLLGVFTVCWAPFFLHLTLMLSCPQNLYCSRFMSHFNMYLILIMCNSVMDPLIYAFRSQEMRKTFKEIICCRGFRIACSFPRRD
T10 sequence (P25103 whole entry): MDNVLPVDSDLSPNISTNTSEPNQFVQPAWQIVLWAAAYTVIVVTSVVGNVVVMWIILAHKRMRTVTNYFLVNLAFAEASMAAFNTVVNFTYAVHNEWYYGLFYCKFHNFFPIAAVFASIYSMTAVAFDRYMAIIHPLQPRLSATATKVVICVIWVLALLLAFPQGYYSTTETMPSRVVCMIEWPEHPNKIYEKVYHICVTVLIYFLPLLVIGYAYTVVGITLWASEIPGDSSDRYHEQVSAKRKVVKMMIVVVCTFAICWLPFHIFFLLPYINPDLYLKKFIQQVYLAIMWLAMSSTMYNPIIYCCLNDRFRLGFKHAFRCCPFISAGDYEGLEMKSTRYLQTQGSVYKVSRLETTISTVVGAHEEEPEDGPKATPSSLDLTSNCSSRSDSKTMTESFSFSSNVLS
T3 sequence (P41968 whole entry): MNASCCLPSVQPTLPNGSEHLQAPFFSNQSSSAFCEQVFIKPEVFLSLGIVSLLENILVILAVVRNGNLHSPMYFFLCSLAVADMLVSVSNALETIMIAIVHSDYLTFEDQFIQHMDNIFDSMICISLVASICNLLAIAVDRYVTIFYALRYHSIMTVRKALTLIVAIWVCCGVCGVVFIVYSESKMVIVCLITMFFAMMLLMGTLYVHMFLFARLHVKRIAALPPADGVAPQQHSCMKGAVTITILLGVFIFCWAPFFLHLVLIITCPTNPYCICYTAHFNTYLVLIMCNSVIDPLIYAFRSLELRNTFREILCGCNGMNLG
T11 sequence (P35372 whole entry): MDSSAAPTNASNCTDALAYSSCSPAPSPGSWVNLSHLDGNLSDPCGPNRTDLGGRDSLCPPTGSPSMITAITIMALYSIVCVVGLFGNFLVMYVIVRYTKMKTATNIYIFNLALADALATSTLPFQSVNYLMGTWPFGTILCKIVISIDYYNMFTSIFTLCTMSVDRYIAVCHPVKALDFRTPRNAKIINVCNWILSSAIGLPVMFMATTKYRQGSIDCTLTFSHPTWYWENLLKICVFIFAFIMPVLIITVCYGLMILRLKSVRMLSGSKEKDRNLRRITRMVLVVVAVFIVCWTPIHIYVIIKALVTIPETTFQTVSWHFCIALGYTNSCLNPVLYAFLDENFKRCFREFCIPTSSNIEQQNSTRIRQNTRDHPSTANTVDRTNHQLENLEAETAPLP
T2 sequence (P41145 whole entry): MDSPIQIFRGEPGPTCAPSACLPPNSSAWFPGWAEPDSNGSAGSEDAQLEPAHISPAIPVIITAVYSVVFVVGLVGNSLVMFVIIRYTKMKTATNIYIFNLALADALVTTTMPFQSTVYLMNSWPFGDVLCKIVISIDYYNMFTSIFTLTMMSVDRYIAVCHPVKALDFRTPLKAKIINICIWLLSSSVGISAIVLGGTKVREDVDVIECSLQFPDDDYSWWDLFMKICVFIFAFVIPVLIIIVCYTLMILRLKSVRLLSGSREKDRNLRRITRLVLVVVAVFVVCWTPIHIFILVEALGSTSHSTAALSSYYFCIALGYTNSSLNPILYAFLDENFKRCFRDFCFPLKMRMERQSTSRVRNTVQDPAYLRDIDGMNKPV

SMILES	A5: inhibition of radioligand binding ([1]; FlashPlate)	A2: inhibition of radioligand binding ([2]; filtration)	A3: inhibition of radioligand binding ([3]; FlashPlate)	A1: inhibition of radioligand binding ([4]; FlashPlate)	A10: inhibition of radioligand binding ([5]; FlashPlate)	A9: inhibition of radioligand binding ([6]; FlashPlate)	A6: inhibition of radioligand binding ([7]; [125I]-S36057, FlashPlate)	A11: inhibition of radioligand binding ([8]; FlashPlate)	A4: inhibition of radioligand binding ([9]; FlashPlate)	A8: inhibition of radioligand binding ([10]; filtration)	A7: inhibition of radioligand binding ([11]; FlashPlate)	further results
NCCC(=O)N[C@H]1C(OCc2ccc3ccccc3c2)O[C@H](COCc2ccc(Cl)cc2)[C@@H](O)[C@@H]1OCc1ccc2ccccc2c1 (stereo partly shown) [compound 447]												A5: inhibition of radioligand binding ([1]; human MC5 membranes): + (“+” indicates greater than 50% inhibition at 10 μM); A2: inhibition of radioligand binding ([2]; human KOP membranes): − (“−” indicates less than 50% inhibition at 10 μM); A3: inhibition of radioligand binding ([3]; human MC3 membranes, 10 µM): + (“+” indicates greater than 50% inhibition at 10 μM); A1: inhibition of radioligand binding ([4]; human DOP membranes): − (“−” indicates less than 50% inhibition at 10 μM); A10: inhibition of radioligand binding ([5]; human ORL1 membranes): − (“−” indicates less than 50% inhibition at 10 μM); A9: inhibition of radioligand binding ([6]; human NPY-Y1 membranes): − (“−” indicates less than 50% inhibition at 10 μM); A6: inhibition of radioligand binding ([7]; [125I]-S36057, human MCH1 membranes, 10 µM): + (“+” indicates greater than 50% inhibition at 10 μM); A11: inhibition of radioligand binding ([8]; mouse mUR2 membranes): − (“−” indicates less than 50% inhibition at 10 μM); A4: inhibition of radioligand binding ([9]; human MC4 membranes, 10 µM): + (“+” indicates greater than 50% inhibition at 10 μM); A8: inhibition of radioligand binding ([10]; human NK1 membranes): + (“+” indicates greater than 50% inhibition at 10 μM); A7: inhibition of radioligand binding ([11]; human MOP membranes): − (“−” indicates less than 50% inhibition at 10 μM)
COCC1OC(OCc2ccc(Cl)cc2)C(NC(=O)CCCN)C(OCc2ccccc2)C1O (stereo not shown) [compound 197]	− (“−” indicates less than 50% inhibition at 10 μM)	− (“−” indicates less than 50% inhibition at 10 μM)	− (“−” indicates less than 50% inhibition at 10 μM)	− (“−” indicates less than 50% inhibition at 10 μM)	− (“−” indicates less than 50% inhibition at 10 μM)	− (“−” indicates less than 50% inhibition at 10 μM)	− (“−” indicates less than 50% inhibition at 10 μM)	− (“−” indicates less than 50% inhibition at 10 μM)	− (“−” indicates less than 50% inhibition at 10 μM)	+ (“+” indicates greater than 50% inhibition at 10 μM)	− (“−” indicates less than 50% inhibition at 10 μM)	
COCC1OC(OCc2ccc(Cl)cc2)C(NC(=O)CCNC(=N)N)C(OCc2ccc(Cl)cc2)C1O (stereo not shown) [compound 202]	+ (“+” indicates greater than 50% inhibition at 10 μM)	− (“−” indicates less than 50% inhibition at 10 μM)	+ (“+” indicates greater than 50% inhibition at 10 μM)	− (“−” indicates less than 50% inhibition at 10 μM)	− (“−” indicates less than 50% inhibition at 10 μM)	− (“−” indicates less than 50% inhibition at 10 μM)	+ (“+” indicates greater than 50% inhibition at 10 μM)	− (“−” indicates less than 50% inhibition at 10 μM)	+ (“+” indicates greater than 50% inhibition at 10 μM)	+ (“+” indicates greater than 50% inhibition at 10 μM)	− (“−” indicates less than 50% inhibition at 10 μM)	
COC[C@H]1OC(OCc2ccc(-c3ccccc3)cc2)[C@H](NC(=O)CCCN)[C@@H](OCc2cccc(O)c2)[C@@H]1O (stereo partly shown) [compound 131]												A5 radioligand binding, percentage inhibition [1]: − (“−” indicates less than 50% inhibition at 10 μM); A2 radioligand binding, percentage inhibition [2]: − (“−” indicates less than 50% inhibition at 10 μM); A3 radioligand binding, percentage inhibition [3]: − (“−” indicates less than 50% inhibition at 10 μM); A1 radioligand binding, percentage inhibition [4]: − (“−” indicates less than 50% inhibition at 10 μM); A10 radioligand binding, percentage inhibition [5]: − (“−” indicates less than 50% inhibition at 10 μM); A9 radioligand binding, percentage inhibition [6]: − (“−” indicates less than 50% inhibition at 10 μM); A6 radioligand binding, percentage inhibition ([7]; [125I]-S36057): + (“+” indicates greater than 50% inhibition at 10 μM); A11 radioligand binding, percentage inhibition [8]: − (“−” indicates less than 50% inhibition at 10 μM); A4 radioligand binding, percentage inhibition [9]: − (“−” indicates less than 50% inhibition at 10 μM); A8 radioligand binding, percentage inhibition [10]: − (“−” indicates less than 50% inhibition at 10 μM)
